Entries after “also recorded” stand apart in the source; their conditions may differ.
How the values were obtained:
[1] = Patient-reported outcomes, pain and inflammation (Relief); assay type: in vivo, patients; details: pain / inflammatory conditions (pain and anxiety)
Description: (§1) Relief includes Base Formulations used in connection with more than one patient suffering from pain and/or inflammatory diseases including neuropathic, and nociceptive pain caused by a range of injuries, arthritis, fibromyalgia, fibrosis, shingles, diabetes, and Lyme disease. Some patients suffering from pain were also suffering from COPD. […] For example, in the Table FIG. 1, Base Formulation TF8 has twice as much terpenes as TF7. […] If a patient was experience pain resulting from an inflammatory condition, such as COPD, then it was not necessary to include THC in the patient's formulations. However, if the patient was suffering from a type of pain such as nociceptive or neuropathic, the use of THC was beneficial. Increasing alpha pinene will be beneficial for patients with COPD.
In addition, even when a patient was reporting good symptom relief, patient dosages were titrated up, including both dosing frequency and dose size, to determine whether better relief could be achieved. […] Thereafter, the HCP would revert the formulation back to the previous dosage and constituent amounts. Treatment then continues forward at that reverted level.
(§2) FIG. 10 is a Pain Management Table, FIG. 11 is an Insomnia Table, FIG. 12 is a Cancer Treatment Support Table, FIG. 13 is an Anxiety, Depression, PTSD Management Table, FIG. 14 is a Chronic Obstructive Pulmonary Disease (COPD) Table, and FIG. 15 is a Irritable Bowel Syndrome Table. These are symptom-specific tables which summarize the pharmaceutical compositions where two or more patients, grouped by specific composition have reported moderate to substantial symptom improvement with the use of the specified composition for periods of use ranging from 1 to 24 months. With respect to the Tables in FIGS. 10-15, the amounts specified in the tables represent the mass in milligrams (mg) per 1.0 milliliter (mL). Dosing protocols vary and may involve a dosing volume ranging from 0.1 ml to 1 ml with a frequency of once, twice or three times a day (QD, BID, or TID, respectively), and in some cases used on an as-needed basis.

[2] = Patient-reported outcomes, gastrointestinal disorders (Wisdom); assay type: in vivo, patients; details: 15-100 mg/mL added
Description: Studies have shown that the Wisdom BASE formulations relieve symptoms associated with gastrointestinal disorders, such as IBS and others.
as §2

[3] = Patient-reported side effects and tolerability
[4] = Patient-reported outcomes, insomnia and sleep (Rest); assay type: in vivo, patients; details: THC small amount (0.25-10 mg/ml); terpenes increased by 0.25-3.5 mg/mL
Description: as §2

[5] = Patient-reported outcomes, COPD; assay type: in vivo; details: patients suffering from COPD
Description: as §1
(§3) FIG. 10 is a Pain Management Table, FIG. 11 is an Insomnia Table, FIG. 12 is a Cancer Treatment Support Table, FIG. 13 is an Anxiety, Depression, PTSD Management Table, FIG. 14 is a Chronic Obstructive Pulmonary Disease (COPD) Table, and FIG. 15 is a Irritable Bowel Syndrome Table. These are symptom-specific tables which summarize the pharmaceutical compositions where two or more patients, grouped by specific composition have reported moderate to substantial symptom improvement with the use of the specified composition for periods of use ranging from 1 to 24 months. […]

[6] = Patient-reported outcomes, anxiety, depression, PTSD (Calm / Serenity); assay type: in vivo, patients; details: people with anxiety
Description: FIGS. 2 and 3 show Oblend® Treatment Family (Oblend Tx) Calm formulations and Oblend Tx Serenity formulations. These tables include base formulations (BASE) for subjects suffering from anxiety, depression, and PTSD. The BASE Formulation is selected from Calm or Serenity Tables based on the subject's symptoms.
Some patients respond well to LIM and LOL while others respond better to more sedative terpenes like MYR and TPN. In most cases, patients with anxiety respond well to Calm Tx formulations. […] If a patient suffering from anxiety initially began treatment with the Calm Base and experienced some symptom relief, then, this patient continued taking Calm formulations from Calm or a personalized formulation with a similar terpene profile as Calm.
as §3

Structure (SMILES)	patient outcomes on adding the ingredient to the formulation [1]	sleep on adding or increasing the ingredient [4]	further results
CCCCCc1cc(O)c2c(c1)OC(C)(CCC=C(C)C)C=C2 (stereo not shown) [CBC, Cannabichromene]	in some cases, patients reported a reduction in symptoms; also recorded: favorable patient outcomes improved dramatically		
C=C(C)[C@@H]1CCC(C)=C[C@H]1c1c(O)cc(CCCCC)cc1O [CBD, Cannabidiol]			gastrointestinal symptom relief on adding the ingredient [2]: improved symptom relief
CCCCCc1cc(O)c(C/C=C(\C)CCC=C(C)C)c(O)c1 [CBG, Cannabigerol]	some patients reported a reduction in symptoms; also recorded: favorable patient outcomes increased		
CCCCCc1cc(O)c2c(c1)OC(C)(C)c1ccc(C)cc1-2 [CBN, Cannabinol]	favorable patient outcomes increased		
CCCCCc1cc(O)c2c(c1)OC(C)(C)C1CC=C(C)CC21 (stereo not shown) [Delta-8, delta-8-tetrahydrocannabinol]			side-effects compared with Delta-9 THC ([3]; according to most patients): fewer side-effects
CCCCCc1cc(O)c2c(c1)OC(C)(C)[C@@H]1CCC(C)=C[C@@H]21 [THC, Tetrahydrocannabinol, reference compound]	improved pain relief	patients were able to fall asleep; also recorded: improves sleep	
CC1=CCC2CC1C2(C)C (stereo not drawn) [alpha-pinene, Alpha Pinene]			COPD outcomes on increasing the terpene [5]: significantly improved outcomes
C=C1CC/C=C(\C)CC[C@@H]2[C@@H]1CC2(C)C [beta Caryophyllene, Beta Caryophyllene]	significant improvement in symptom relief; also recorded: increased patient outcomes		COPD outcomes on increasing the terpene [5]: significantly improved outcomes
C=C(C)[C@H]1CC=C(C)CC1 [limonene, Limonene]			anxiety response to the terpene [6]: make some people more anxious
C=CC(C)(O)CCC=C(C)C (stereo not shown) [linalool, Linalool]		improves sleep	
C=CC(=C)CCC=C(C)C [myrcene, Myrcene]		increased the duration and quality of sleep; also recorded: improves sleep	
C=CC(C)(O)CCC=C(C)CCC=C(C)C (stereo not shown) [nerolidol, Nerolidol]		increased the duration and quality of sleep	allergy ([3]; ingredient of most formulations): some patients are allergic
CC1=CCC(=C(C)C)CC1 [terpinolene, Terpinolene]		increased the duration and quality of sleep; also recorded: improves sleep	

From US20230390310A1, “PERSONALIZED, PRECISE, CONSISTENT BOTANICAL FORMULATIONS ON DEMAND” (ALTOPA, INC, priority 2022, published 2023)
